Test results from patent publication US20120010075A1 (priority 2009, published 2012).
Read-outs that look alike come from different tables or passages of the source.

What was measured:
[1] = system: Leptosphaeria nodorum (LEPTNO); assay: In vitro fungitoxicity of hydrazones with and without copper towards Leptosphaeria nodorum (Example 26); format: cell-based; settings: for LEPTNO % Inhn. Plus Copper Observed: copper-plus medium (CuCl2.2H2O)
[2] = system: Leptosphaeria nodorum (glume blotch of wheat); assay: Cu-hydrazone complexes versus parent hydrazones against glume blotch of wheat (Example 32, Table 8); format: in vivo, Leptosphaeria nodorum on wheat (cultivar Yuma); settings: Parastagonospora nodorum, 200 ppm spray, inoculated after 24 h
[3] = system: Phytophthora capsici; assay: In vitro fungitoxicity of hydrazones with and without copper towards Phytophthora capsici (Example 28, Table 3); format: cell-based; settings: for % Inhn Plus copper Observed: copper-plus AS medium (CuCl2, 50 μM)
[4] = system: Leptosphaeria nodorum (LEPTNO); assay: Isolated metal-hydrazone complexes versus parent hydrazones, in vitro, Leptosphaeria nodorum (Example 31, Table 7); format: cell-based; settings: Parastagonospora nodorum; 0.1 μg/mL; copper-minus medium; 72 h
[5] = system: Phytophthora infestans; format: in vivo, Phytophthora infestans on tomato; settings: hydrazone 50 ppm + 50 μM CuCl2.2H2O, applied 24 h before inoculation, assessed 7 days after inoculation, tomato
[6] = system: Ustilago maydis; assay: In vitro fungitoxicity of hydrazones with and without copper towards Ustilago maydis (Example 29, Table 4); format: cell-based
[7] = system: Leptosphaeria nodorum (LEPTNO); assay: Effect of copper on fungitoxicity of metal-hydrazone complexes towards Leptosphaeria nodorum (Example 33, Table 9); format: cell-based; settings: CuCl2, 10 μM, no test compound, across experiments
[8] = system: Phytophthora infestans; format: in vivo, Phytophthora infestans on tomato (Outdoor Girl); settings: no hydrazone
[9] = system: Phytophthora capsici; assay: Effect of copper on fungitoxicity of metal-hydrazone complexes towards Phytophthora capsici (Example 34, Table 10); format: cell-based; settings: CuCl2, 50 μM, no test compound, across experiments
[10] = system: Leptosphaeria nodorum (LEPTNO); assay: Fungitoxicity of copper-hydrazone mixtures of different ratios towards Leptosphaeria nodorum (Example 35, Table 11); format: cell-based
Description: In vitro fungitoxicity assays against LEPTNO were conducted using the copper-minus medium described in Example 26. Mixtures containing hydrazone compound 16 at 200 nM and CuCl2 at 0.2 μM (1:1 molar ratio), 0.8 μM (1:4 ratio), 12.5 μM (1:62.5 ratio) and 200 μM (1:1000 ratio) were prepared in copper-minus medium. Two-fold dilution series of these mixtures were then prepared in 100 μL aliquots of copper-minus medium in flat-bottomed 96-well microtiter plates. A suspension of LEPTNO spores in copper-minus medium at 2×10^5 spores per mL was prepared as in Example 26. Microtiter plates were inoculated with 100 μL of the spore suspension and the plates were incubated at 25° C. for 72 h before assessing fungal growth by measuring light scattering in a NepheloStar plate reader.
(§1) Growth inhibition was determined by comparing growth in the presence of copper-hydrazone mixture with growth in control wells lacking the copper-hydrazone mixture. EC50 values were calculated from dose-response curves, and are expressed as the amounts of hydrazone or copper in each test mixture at the rates providing 50% inhibition of growth as compared to a control lacking the copper-hydrazone mixture.

[11] = system: Plasmopara viticola; parameters: species or system Plasmopara viticola on grape; settings: in vivo
[12] = system: Septoria tritici isolate USA-184; assay: In vitro fungitoxicity of hydrazones with and without copper towards Septoria tritici (Example 30, Table 5); format: cell-based; settings: for inhibition at 0.05 µg/mL: Zymoseptoria tritici, 0.05 μg/mL
[13] = system: Phytophthora capsici; assay: Fungitoxicity of copper-hydrazone mixtures of different ratios towards Phytophthora capsici (Example 36, Table 12); format: cell-based
Description: In vitro fungitoxicity assays against Phytophthora capsici were conducted using the copper-minus AS medium described in Example 28. Mixtures containing hydrazone compound 16 at 200 nM and CuCl2.2H2O at 0.2 μM (1:1 molar ratio), 0.8 μM (1:4 ratio), 3.2 μM (1:16 ratio), 12.5 μM (1:62.5 ratio), 50 μM (1:200 ratio) and 200 μM (1:1000 ratio) were prepared in copper-minus AS medium. Two-fold dilution series of these mixtures were then prepared in 100 μL aliquots of copper-minus AS medium in flat-bottomed 96-well microtiter plates. A suspension of P. capsici zoospores in Chelex-treated water at 5×10^4 spores per mL was prepared as in Example 28. Microtiter plates were inoculated with 100 μL of the spore suspension and incubated at 25° C. for 48 h before assessing fungal growth by measuring light scattering in a NepheloStar plate reader.
as §1

[14] = system: Phytophthora infestans; format: in vivo, Phytophthora infestans on tomato; settings: Late blight, 160 μM
[15] = Parastagonospora nodorum, 72 h, compound 0.05 μg/mL, copper-minus medium, 72 h at 25° C., read-out: LEPTNO % Inhn. Minus Copper Observed
[16] = compound 0.05 μg/mL, 72 h at 25° C.
[17] = Phytophthora capsici, 0.039 μg/mL, copper-minus AS medium, 48 h, read-out: % Inhn Minus copper Observed
[18] = CuCl2 without hydrazone, read-out: CuCl2 EC50
[19] = mixture with hydrazone compound 16, Hydrazone:Cu ratio 1 to 1, read-out: CuCl2 EC50 (amount of CuCl2 in mixture at EC50)
[20] = mixture with hydrazone compound 16, Hydrazone:Cu ratio 1 to 4, read-out: CuCl2 EC50 (amount of CuCl2 in mixture at EC50)
[21] = mixture with hydrazone compound 16, Hydrazone:Cu ratio 1 to 62.5, read-out: CuCl2 EC50 (amount of CuCl2 in mixture at EC50)
[22] = mixture with hydrazone compound 16, Hydrazone:Cu ratio 1 to 1000, read-out: CuCl2 EC50 (amount of CuCl2 in mixture at EC50)

In the case of O=C(N/N=C/c1cc(Cl)cc(Cl)c1O)c1ccccc1[N+](=O)[O-] [Example 96], the inhibition of growth at 0.05 µg/mL [1, 15] is reported as 1.2%, the “LEPTNO % Inhn. Plus Copper Observed” value [1, 16] is reported as 93.6% and the pest or weed control at 200 ppm [2] is reported as 0%. For the same compound, the “% Inhn Plus copper Observed” value ([3]; 0.039 μg/mL, 48 h) was 91.9%, the inhibition of growth at 0.039 µg/mL [3, 17] was 55.2% and the inhibition at 0.1 µg/mL [4] was 10.7%. The “TLB % Control” value [5] was 78.2%.
With O=C(N/N=C/c1cc(Cl)cc(Cl)c1O)c1ccc(OC(F)(F)F)cc1 [Example 100] the inhibition of growth at 0.05 µg/mL [1, 15] was 8.2%, the “LEPTNO % Inhn. Plus Copper Observed” value [1, 16] was 97.0% and the pest or weed control at 200 ppm [2] was 0%. For the same compound, the melting point was 220 to 229 °C, the “% Inhn Plus copper Observed” value ([3]; 0.039 μg/mL, 48 h) was 88.8% and the inhibition of growth at 0.039 µg/mL [3, 17] was 10%. For the same compound, the inhibition at 0.1 µg/mL [4] was 24.7% and the “TLB % Control” value [5] was 74.2%.
With O=C(N/N=C/c1cc(Cl)cc(Cl)c1O)c1c(Cl)cccc1Cl [Example 43] the inhibition of growth at 0.156 µg/mL ([1]; Parastagonospora nodorum, 72 h, compound 0.156 μg/mL, copper-minus medium, 72 h at 25° C., read-out: LEPTNO % Inhn. Minus Copper Observed) was 14.2%, the “LEPTNO % Inhn. Plus Copper Observed” value ([1]; compound 0.156 μg/mL, 72 h at 25° C.) was 75.4% and the pest or weed control at 200 ppm [2] was 0%. The melting point was 250 to 252 °C, the “% Inhn Plus copper Observed” value ([3]; 0.039 μg/mL, 48 h) was 90.3% and the inhibition of growth at 0.039 µg/mL [3, 17] was 54.2%. For the same compound, the inhibition at 0.1 µg/mL [4] was 3.6% and the “TLB % Control” value [5] was 68.8%.
With O=C(N/N=C/c1cc(Cl)cc(Cl)c1O)c1ccccc1Br [Example 84] the inhibition of growth at 0.05 µg/mL [1, 15] was 5.6%, the “LEPTNO % Inhn. Plus Copper Observed” value [1, 16] was 95.5% and the pest or weed control at 200 ppm [2] was 37%. For the same compound, the “% Inhn Plus copper Observed” value ([3]; 0.039 μg/mL, 48 h) was 95.0%, the inhibition of growth at 0.039 µg/mL [3, 17] was 47.5% and the inhibition at 0.1 µg/mL [4] was 6.7%. For the same compound, the “TLB % Control” value [5] was 83.6%.
For O.O.[Cl][Cu][Cl] [CuCl2, CuCl2.2H2O, reference compound], the “% Inhn. attributed to copper chloride alone” value (“% Inhn. attributed” for short) ([6]; CuCl2, 10 μM, no test compound) was 11.9%, the “LEPTNO % Inhn. Plus Copper Observed (copper chloride alone)” value ([1]; CuCl2 10 μM alone, no test compound, copper-plus versus copper-minus medium across experiments) was 7.1 ± 6.0% and the “% Inhn attributed to copper chloride alone” value ([3]; CuCl2, 50 μM, no test compound, across experiments) was 4.5 ± 7.9%. The “% Inhn. attributed” value [7] was 3.3%, the “% Control of Tomato Late Blight” value ([8]; CuCl2 10 μM alone) was 1.7% and the “% Control of Tomato Late Blight” value ([8]; CuCl2 50 μM alone) was 8.5%. For the same compound, the “% Control of Tomato Late Blight” value ([8]; CuCl2 200 μM alone) was 38.2%, the “% Control of Tomato Late Blight” value ([8]; CuCl2 400 μM alone) was 56.0% and the “% Control of Tomato Late Blight” value ([8]; CuCl2 800 μM alone) was 70.2%. The “% Inhn. attributed” value [9] was 4.6%, the EC50 [10, 18] was 118 µM and the EC50 [10, 19] was 0.072 µM. The EC50 [10, 20] was 0.172 µM, the EC50 [10, 21] was 1.77 µM and the EC50 [10, 22] was 14 µM. The “% Control Observed” value [11] was 1%, the “effect of copper chloride alone on growth” value ([12]; 1 μM, no test compound) was “no effect on growth” and the “% Inhibition attributed to copper chloride alone” value ([12]; CuCl2, 1 μM, no test compound) was 0%. For the same compound, the EC50 [13, 18] was 720 µM, the EC50 [13, 19] was 0.071 µM and the EC50 [13, 20] was 0.189 µM. It also gave an EC50 ([13]; mixture with hydrazone compound 16, Hydrazone:Cu ratio 1 to 16, read-out: CuCl2 EC50 (amount of CuCl2 in mixture at EC50)) of 0.441 µM, an EC50 [13, 21] of 1.04 µM and an EC50 ([13]; mixture with hydrazone compound 16, Hydrazone:Cu ratio 1 to 250, read-out: CuCl2 EC50 (amount of CuCl2 in mixture at EC50)) of 1.9 µM. For the same compound, the EC50 [13, 22] was 4.56 µM and the “% Control Observed” value [14] was 69%.
For O=C(N/N=C/c1cc(Cl)cc(Cl)c1O)c1cc(Cl)ccc1Cl [Example 83], the inhibition of growth at 0.05 µg/mL [1, 15] was 5.9%, the “LEPTNO % Inhn. Plus Copper Observed” value [1, 16] was 98.0% and the pest or weed control at 200 ppm [2] was 38%. For the same compound, the melting point was 189 to 191 °C, the “% Inhn Plus copper Observed” value ([3]; 0.039 μg/mL, 48 h) was 96.2% and the inhibition of growth at 0.039 µg/mL [3, 17] was 27.9%. The inhibition at 0.1 µg/mL [4] was 27.9% and the “TLB % Control” value [5] was 60.6%.
With O=C(N/N=C/c1cc(Cl)cc(Cl)c1O)c1ccccc1O [Example 69] the “% Inhn. Plus copper Observed” value ([6]; 1 μg/mL, copper-plus medium (CuCl2, 10 μM), 48 h) was 96.2%, the inhibition of growth at 1 µg/mL ([6]; Mycosarcoma maydis, 1 μg/mL, copper-minus medium, 48 h, read-out: % Inhn. Minus copper Observed) was 0% and the inhibition of growth at 0.05 µg/mL [1, 15] was 19.3%. The “LEPTNO % Inhn. Plus Copper Observed” value [1, 16] was 96.9%, the pest or weed control at 200 ppm [2] was 25% and the “% Inhn Plus copper Observed” value ([3]; 0.050 μg/mL, 48 h) was 87.6%. It also gave an inhibition of growth at 0.05 µg/mL ([3]; Phytophthora capsici, 0.050 μg/mL, copper-minus AS medium, 48 h, read-out: % Inhn Minus copper Observed) of 0%, an inhibition at 0.05 µg/mL ([12]; Colby formula, CuCl2, read-out: % Inhibition Plus copper Predicted) of 0% and an inhibition at 0.05 µg/mL ([12]; copper-minus medium, 90 h, read-out: % Inhibition Minus copper Observed) of 0%. For the same compound, the inhibition at 0.05 µg/mL ([12]; copper-plus medium CuCl2, 90 h, read-out: % Inhibition Plus copper Observed) was 96.7%, the inhibition at 0.1 µg/mL [4] was 32.4% and the “TLB % Control” value [5] was 90.8%.
